Where two headings read alike, the source gives them in different places.

The test system of this assay is HBV. Description: HBV replication inhibition assay (BDNA assay) in HepG2.2.15 cells. The note with it: HepG2.2.15 cells, read-out: DNA EC50. The assay is classed as cell-based. In outline: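 Supernatant encapsidated HBV DNA was measured by bDNA after DNase digestion and proteinase K release. Stably HBV-integrated HepG2.2.15 cells had two 3-day compound exposures (0.5% DMSO). Signals were background-subtracted and normalized to DMSO wells, and EC50 was obtained by four-parameter fit.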

Setting [1] is: Hepatitis B virus, HepG2.2.15, HBV replication assay (BDNA assay).
[2] abbreviates: HBV replication assay (BDNA assay).

Regarding `C[C@@H]1Cc2nn3c(c2CN1C(=O)Nc1ccc(F)c(C(F)(F)F)c1)C(=O)N(C)OC(CN)C3` (stereo in doubt) [Compound 116_D1, (4S*,9R)-4-(aminomethyl)-N-(4-fluoro-3-(trifluoromethyl)phenyl)-2,9-dimethyl-1-oxo-1,4,5,8,9,11-hexahydropyrido[4′,3′:3,4]pyrazolo[5,1-d][1,2,5]oxadiazepine-10(2H)-carboxamide], the EC50 under setting [1] was 1 to 100 nM. For the compound `C[C@@H]1Cc2nn3c(c2CN1C(=O)Nc1ccc(F)c(Cl)c1F)C(=O)N(C)OC(CO)C3` (stereo in doubt) [Compound 091_E2, (4R*,9R)—N-(3-chloro-2,4-difluorophenyl)-4-(hydroxymethyl)-2,9-dimethyl-1-oxo-1,4,5,8,9,11-hexahydropyrido[4′,3′:3,4]pyrazolo[5,1-d][1,2,5]oxadiazepine-10(2H)-carboxamide], the EC50 under setting [2] was in the range of 1 to 100 nM. `CN1OC(CO)Cn2nc3c(c2C1=O)CN(C(=O)Nc1cccc(Br)c1F)CC3` (centres unmarked) [Compound 004, N-(3-bromo-2-fluorophenyl)-4-(hydroxymethyl)-2-methyl-1-oxo-1,4,5,8,9,11-hexahydropyrido[4′,3′:3,4]pyrazolo[5,1-d][1,2,5]oxadiazepine-10(2H)-carboxamide]: the EC50 under setting [1] lay in the range of 1 to 100 nM. Take `Cc1ccc(NC(=O)N2CCc3nn4c(c3C2)C(=O)N(C)OC(CO)C4)cc1Cl` (centres unmarked) [Compound 026, N-(3-chloro-4-methylphenyl)-4-(hydroxymethyl)-2-methyl-1-oxo-1,4,5,8,9,11-hexahydropyrido[4′,3′:3,4]pyrazolo[5,1-d][1,2,5]oxadiazepine-10(2H)-carboxamide]: under setting [1], the EC50 fell in the range of 1 to 100 nM. Take `COC(=O)C1Cn2nc3c(c2C(=O)N(C)O1)CN(C(=O)Nc1ccc(F)c(Cl)c1)CC3` (centres unmarked) [Compound 071, methyl 10-[(3-chloro-4-fluoro-phenyl)carbamoyl]-2-methyl-1-oxo-5,8,9,11-tetrahydro-4H-pyrido[2,3]pyrazolo[2,4-d][1,2,5]oxadiazepine-4-carboxylate]: the EC50 under setting [1] is > 1000 nM. The same measure, in the same setting: under `C[C@@H]1Cc2nn3c(c2CN1C(=O)Nc1ccc(F)c(C#N)c1)C(=O)N(C)OC(CN)C3` (single isomer, unassigned) [Compound 115_D1, (4S*,9R)-4-(aminomethyl)-N-(3-cyano-4-fluorophenyl)-2,9-dimethyl-1-oxo-1,4,5,8,9,11-hexahydropyrido[4′,3′:3,4]pyrazolo[5,1-d][1,2,5]oxadiazepine-10(2H)-carboxamide] stands 1 to 100 nM; under `CCCOCC1Cn2nc3c(c2C(=O)N(C)O1)CN(C(=O)Nc1ccc(F)c(Cl)c1)CC3` (centres unmarked) [Compound 103, N-(3-chloro-4-fluoro-phenyl)-2-methyl-1-oxo-4-(propoxymethyl)-5,8,9,11-tetrahydro-4H-pyrido[2,3]pyrazolo[2,4-d][1,2,5]oxadiazepine-10-carboxamide], 1 to 100 nM. Take `CC(=O)NCC1Cn2nc3c(c2C(=O)N(C)O1)CN(C(=O)Nc1ccc(F)c(C(F)(F)F)c1)[C@H](C)C3` (single isomer, unassigned) [Compound 177_D2, (4R*,9R)-4-(acetamidomethyl)-N-(4-fluoro-3-(trifluoromethyl)phenyl)-2,9-dimethyl-1-oxo-1,4,5,8,9,11-hexahydropyrido[4′,3′:3,4]pyrazolo[5,1-d][1,2,5]oxadiazepine-10(2H)-carboxamide]: under setting [2], the half-maximal effective concentration (EC50) was 1 to 100 nM. Consider `CN1OC(CO)Cn2nc3c(c2C1=O)CN(C(=O)Nc1cccc(S(F)(F)(F)(F)F)c1)CC3` (centres unmarked) [Compound 029, 4-(hydroxymethyl)-2-methyl-1-oxo-N-(3-(pentafluoro-16-sulfanyl)phenyl)-1,4,5,8,9,11-hexahydropyrido[4′,3′:3,4]pyrazolo[5,1-d][1,2,5]oxadiazepine-10(2H)-carboxamide], for which, under setting [1], the EC50 was in the range of 1 to 100 nM. For the compound `CN1OC(CO)Cn2nc3c(c2C1=O)CN(C(=O)Nc1cc(F)c(F)c(F)c1F)CC3` (single isomer, unassigned) [Compound 151_E1, (S*)-4-(hydroxymethyl)-2-methyl-1-oxo-N-(2,3,4,5-tetrafluorophenyl)-1,4,5,8,9,11-hexahydropyrido[4′,3′:3,4]pyrazolo[5,1-d][1,2,5]oxadiazepine-10(2H)-carboxamide], under setting [1], the EC50 is 1 to 100 nM. The same measure, in the same setting: under `C[C@@H]1Cc2nn3c(c2CN1C(=O)Nc1ccc(F)c(Cl)c1)C(=O)N(C)O[C@H](CO)C3` (stereo in doubt) [Compound 069_E4, (4S*,9R*)—N-(3-chloro-4-fluorophenyl)-4-(hydroxymethyl)-2,9-dimethyl-1-oxo-1,4,5,8,9,11-hexahydropyrido[4′,3′:3,4]pyrazolo[5,1-d][1,2,5]oxadiazepine-10(2H)-carboxamide] stands 1 to 100 nM. The same measure, in the same setting: the value for `C[C@@H]1Cc2nn3c(c2CN1C(=O)Nc1ccc(F)c(Cl)c1F)C(=O)N(C)OC(CO)C3` (stereo in doubt) [Compound 091_E1, (4S*,9R)—N-(3-chloro-2,4-difluorophenyl)-4-(hydroxymethyl)-2,9-dimethyl-1-oxo-1,4,5,8,9,11-hexahydropyrido[4′,3′:3,4]pyrazolo[5,1-d][1,2,5]oxadiazepine-10(2H)-carboxamide] was 1 to 100 nM; that for `CN1OC(CO)Cn2nc3c(c2C1=O)CN(C(=O)Nc1ccc(F)c(C#N)c1)CC3` (single isomer, unassigned) [Compound 034_E1, (S*)—N-(3-cyano-4-fluorophenyl)-4-(hydroxymethyl)-2-methyl-1-oxo-1,4,5,8,9,11-hexahydropyrido[4′,3′:3,4]pyrazolo[5,1-d][1,2,5]oxadiazepine-10(2H)-carboxamide] was 1 to 100 nM; that for `CN(CC(F)F)C(=O)C1Cn2nc3c(c2C(=O)N(C)O1)CN(C(=O)Nc1ccc(F)c(C#N)c1)CC3` (centres unmarked) [Compound 160, N10-(3-cyano-4-fluorophenyl)-N4-(2,2-difluoroethyl)-N4,2-dimethyl-1-oxo-1,4,5,8,9,11-hexahydropyrido[4′,3′:3,4]pyrazolo[5,1-d][1,2,5]oxadiazepine-4,10(2H)-dicarboxamide] was 1 to 100 nM. On the same count and under the same terms, under `C[C@@H]1Cc2nn3c(c2CN1C(=O)Nc1ccc(F)c(C(F)(F)F)c1)C(=O)N(C)OC(CF)C3` (stereo in doubt) [Compound 085_E1, (4S*,9R)—N-(4-fluoro-3-(trifluoromethyl)phenyl)-4-(fluoromethyl)-2,9-dimethyl-1-oxo-1,4,5,8,9,11-hexahydropyrido[4′,3′:3,4]pyrazolo[5,1-d][1,2,5]oxadiazepine-10(2H)-carboxamide] stands 1 to 100 nM. For `Cc1cc(NC(=O)N2Cc3c(nn4c3C(=O)N(C)OC(CN(C)C)C4)C[C@H]2C)ccc1F` (stereo in doubt) [Compound 097_D2, (4R*,9R)-4-((dimethylamino)methyl)-N-(4-fluoro-3-methylphenyl)-2,9-dimethyl-1-oxo-1,4,5,8,9,11-hexahydropyrido[4′,3′:3,4]pyrazolo[5,1-d][1,2,5]oxadiazepine-10(2H)-carboxamide], the EC50 under setting [2] fell in the range of 1 to 100 nM. Consider `C[C@@H]1Cc2nn3c(c2CN1C(=O)Nc1ccc(F)c(C#N)c1)C(=O)N(C)OC(CF)C3` (stereo in doubt) [Compound 087_E1, (4S*,9R)—N-(3-cyano-4-fluorophenyl)-4-(fluoromethyl)-2,9-dimethyl-1-oxo-1,4,5,8,9,11-hexahydropyrido[4′,3′:3,4]pyrazolo[5,1-d][1,2,5]oxadiazepine-10(2H)-carboxamide], for which the EC50 under setting [1] was in the range of 1 to 100 nM. As to `C[C@@H]1Cc2nn3c(c2CN1C(=O)Nc1cc(Cl)c(F)cc1F)C(=O)N(C)OC(C(=O)N(C)CC(F)F)C3` (stereo in doubt) [Compound 154_D1, (4S*,9R)—N10-(5-chloro-2,4-difluorophenyl)-N4-(2,2-difluoroethyl)-N4,2,9-trimethyl-1-oxo-1,4,5,8,9,11-hexahydropyrido[4′,3′:3,4]pyrazolo[5,1-d][1,2,5]oxadiazepine-4,10(2H)-dicarboxamide], the EC50 under setting [2] fell in the range of 500 to 1000 nM. Take `CN1OC(CF)Cn2nc3c(c2C1=O)CN(C(=O)Nc1ccc(F)c(C#N)c1)CC3` (single isomer, unassigned) [Compound 042_E1, (S*)—N-(3-cyano-4-fluorophenyl)-4-(fluoromethyl)-2-methyl-1-oxo-1,4,5,8,9,11-hexahydropyrido[4′,3′:3,4]pyrazolo[5,1-d][1,2,5]oxadiazepine-10(2H)-carboxamide]: the EC50 under setting [1] fell in the range of 1 to 100 nM. For the compound `CN1OC(CO)Cn2nc3c(c2C1=O)CN(C(=O)Nc1cc(Br)ncc1F)CC3` (single isomer, unassigned) [Compound 150_E1, (S*)—N-(2-bromo-5-fluoropyridin-4-yl)-4-(hydroxymethyl)-2-methyl-1-oxo-1,4,5,8,9,11-hexahydropyrido[4′,3′:3,4]pyrazolo[5,1-d][1,2,5]oxadiazepine-10(2H)-carboxamide], the EC50 under setting [1] was 1 to 100 nM. `C[C@@H]1Cc2nn3c(c2CN1C(=O)Nc1ccc(F)c(C#N)c1)C(=O)N(C)OC(C(=O)N(C)CC(F)F)C3` (stereo in doubt) [Compound 155_D1, (4S*,9R)—N10-(3-cyano-4-fluorophenyl)-N4-(2,2-difluoroethyl)-N4,2,9-trimethyl-1-oxo-1,4,5,8,9,11-hexahydropyrido[4′,3′:3,4]pyrazolo[5,1-d][1,2,5]oxadiazepine-4,10(2H)-dicarboxamide]: the half-maximal effective concentration (EC50) under setting [2] fell in the range of 500 to 1000 nM. Turning to `CN1OC(CF)Cn2nc3c(c2C1=O)CN(C(=O)Nc1ccc(F)c(Br)c1)CC3` (single isomer, unassigned) [Compound 040_E1, (S*)—N-(3-bromo-4-fluorophenyl)-4-(fluoromethyl)-2-methyl-1-oxo-1,4,5,8,9,11-hexahydropyrido[4′,3′:3,4]pyrazolo[5,1-d][1,2,5]oxadiazepine-10(2H)-carboxamide], under setting [1], the EC50 is 1 to 100 nM. For `C[C@@H]1Cc2nn3c(c2CN1C(=O)Nc1ccnc(Br)c1F)C(=O)N(C)OC(COCC(F)F)C3` (stereo in doubt) [Compound 123_D1, (4S*,9R)—N-(2-bromo-3-fluoropyridin-4-yl)-4-((2,2-difluoroethoxy)methyl)-2,9-dimethyl-1-oxo-1,4,5,8,9,11-hexahydropyrido[4′,3′:3,4]pyrazolo[5,1-d][1,2,5]oxadiazepine-10(2H)-carboxamide], under setting [2], the EC50 lay in the range of 100 to 500 nM.

Broadly, the EC50 is the concentration giving half of the maximal effect.

(Values after US10987359B2, “Oxadiazepinone derivatives and methods of treating hepatitis B infections” (priority 2016, dated 2021).)
